Measured values as given in patent US9840513B2 (AbbVie S.à.r.l., priority 2015, dated 2017).

Target: T1, F508delCFTR cell surface expression in CFBE41o-F508delCFTR-HRP cells (Homo sapiens, UniProt P13569, DEL508-508)
T1 construct: fused on or other part: Horseradish peroxidase (HRP) reporter inserted in the fourth exofacial (extracellular) loop of CFTR; expression is doxycycline-inducible
Test: Cell Surface Expression-Horse Radish Peroxidase (CSE-HRP) Assay
Type: cell-based
Details: for EC50: CFBE41o-F508delCFTR-HRP cells, 18-24 hours at 33° C., 8-point curve, highest concentration 20 μM; for Maximum % activity (%): maximum at any tested concentration, normalized to on-plate positive control (3 μM)
Outline: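 CFBE41o- cells with HRP-tagged F508delCFTR, expression induced by 0.5 μg/mL doxycycline for 72 h at 37 °C, then compound for 18-24 h at 33 °C (8-point, 3-fold, top 20 μM). Surface HRP measured by luminol luminescence; % activity normalised to 3 μM positive-control corrector; EC50 from variable-slope sigmoidal fit, three replicate plates.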

T1 sequence (P13569 with tags, fused parts or gaps DEL508-508 limits assumed): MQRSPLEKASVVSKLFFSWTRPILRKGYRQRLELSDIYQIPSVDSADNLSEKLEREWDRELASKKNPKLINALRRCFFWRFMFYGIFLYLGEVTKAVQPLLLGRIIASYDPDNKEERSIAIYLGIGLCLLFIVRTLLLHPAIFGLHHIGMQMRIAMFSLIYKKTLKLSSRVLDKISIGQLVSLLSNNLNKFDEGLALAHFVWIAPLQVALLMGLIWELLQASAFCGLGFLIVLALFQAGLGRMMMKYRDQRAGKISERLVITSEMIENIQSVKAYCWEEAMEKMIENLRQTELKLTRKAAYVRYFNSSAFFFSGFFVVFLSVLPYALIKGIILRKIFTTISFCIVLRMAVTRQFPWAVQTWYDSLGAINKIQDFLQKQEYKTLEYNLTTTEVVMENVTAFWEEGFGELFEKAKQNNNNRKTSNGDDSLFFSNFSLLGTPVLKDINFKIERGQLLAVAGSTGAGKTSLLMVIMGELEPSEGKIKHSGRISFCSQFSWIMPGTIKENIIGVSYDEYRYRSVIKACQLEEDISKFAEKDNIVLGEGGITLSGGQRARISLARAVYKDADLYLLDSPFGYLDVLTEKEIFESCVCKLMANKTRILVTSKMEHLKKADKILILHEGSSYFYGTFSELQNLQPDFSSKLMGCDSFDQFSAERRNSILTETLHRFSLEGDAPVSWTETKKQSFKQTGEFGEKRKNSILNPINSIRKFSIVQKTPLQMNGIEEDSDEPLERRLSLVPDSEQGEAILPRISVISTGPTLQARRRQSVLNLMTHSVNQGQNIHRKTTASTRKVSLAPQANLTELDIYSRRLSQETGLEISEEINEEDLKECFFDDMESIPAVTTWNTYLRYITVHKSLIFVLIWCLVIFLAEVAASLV
T1 sequence (P13569 919-1480 limits assumed, stated change not applied): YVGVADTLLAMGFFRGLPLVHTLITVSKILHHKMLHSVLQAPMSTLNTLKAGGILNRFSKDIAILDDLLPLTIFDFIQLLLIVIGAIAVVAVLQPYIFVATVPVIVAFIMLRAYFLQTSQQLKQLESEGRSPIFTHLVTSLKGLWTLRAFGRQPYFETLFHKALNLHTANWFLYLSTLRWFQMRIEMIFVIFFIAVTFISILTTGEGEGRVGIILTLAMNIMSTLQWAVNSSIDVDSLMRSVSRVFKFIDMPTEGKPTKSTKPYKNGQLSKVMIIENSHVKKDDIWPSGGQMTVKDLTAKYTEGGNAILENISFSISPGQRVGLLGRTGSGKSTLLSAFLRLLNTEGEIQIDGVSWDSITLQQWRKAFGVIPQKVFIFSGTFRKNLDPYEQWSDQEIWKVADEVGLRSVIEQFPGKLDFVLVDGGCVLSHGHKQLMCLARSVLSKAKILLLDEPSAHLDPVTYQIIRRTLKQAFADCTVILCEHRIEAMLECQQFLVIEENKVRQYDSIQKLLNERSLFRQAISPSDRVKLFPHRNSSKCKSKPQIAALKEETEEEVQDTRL

With C[C@]1(C(=O)Nc2cc3cc(C4(CO)CCOCC4)n(C[C@@H](O)CO)c3cc2F)COc2cc3c(cc21)OC(F)(F)O3 [Example 170, (7R)—N-{1-[(2R)-2,3-dihydroxypropyl]-6-fluoro-2-[4-(hydroxymethyl)oxan-4-yl]-1H-indol-5-yl}-2,2-difluoro-7-methyl-6,7-dihydro-2H-furo[2,3-f][1,3]benzodioxole-7-carboxamide] the EC50 was 1260 nM and the “Maximum % activity (%)” value was 65%.

COc1ccc2c(c1)O[C@@H](c1cnc(CO)cn1)C[C@H]2NC(=O)[C@@]1(C)COc2cc3c(cc21)OC(F)(F)O3 [Example 173, (7R)-2,2-difluoro-N-{(2R,4R)-2-[5-(hydroxymethyl)pyrazin-2-yl]-7-methoxy-3,4-dihydro-2H-1-benzopyran-4-yl}-7-methyl-6,7-dihydro-2H-furo[2,3-f][1,3]benzodioxole-7-carboxamide] was tested, and the EC50 was 90 nM and the “Maximum % activity (%)” value was 132%.

For COc1ccc2c(c1)O[C@@H](c1ccc(Br)nc1)C[C@H]2NC(=O)[C@@]1(C)COc2cc3c(cc21)OC(F)(F)O3 [Example 176, (7R)—N-[(2R,4R)-2-(6-bromopyridin-3-yl)-7-methoxy-3,4-dihydro-2H-1-benzopyran-4-yl]-2,2-difluoro-7-methyl-6,7-dihydro-2H-furo[2,3-f][1,3]benzodioxole-7-carboxamide], the EC50 was 270 nM and the “Maximum % activity (%)” value was 118%.

COc1ccc2c(c1)O[C@@H](c1ccc(C(C)=O)cn1)C[C@H]2NC(=O)[C@@]1(C)COc2cc3c(cc21)OC(F)(F)O3 [Example 180, (7R)—N-[(2R,4R)-2-(5-acetylpyridin-2-yl)-7-methoxy-3,4-dihydro-2H-1-benzopyran-4-yl]-2,2-difluoro-7-methyl-6,7-dihydro-2H-furo[2,3-f][1,3]benzodioxole-7-carboxamide] was tested, and the EC50 was 20 nM and the “Maximum % activity (%)” value was 124%.

With COc1ccc2c(c1)O[C@@H](c1ccc(C(C)(C)O)cn1)C[C@H]2NC(=O)[C@@]1(C)COc2cc3c(cc21)OC(F)(F)O3 [Example 181, (7R)-2,2-difluoro-N-{(2R,4R)-2-[5-(2-hydroxypropan-2-yl)pyridin-2-yl]-7-methoxy-3,4-dihydro-2H-1-benzopyran-4-yl}-7-methyl-6,7-dihydro-2H-furo[2,3-f][1,3]benzodioxole-7-carboxamide] the EC50 was 30 nM and the “Maximum % activity (%)” value was 129%.

In the case of C[C@]1(C(=O)N[C@@H]2C[C@H](C3CCNCC3)Oc3cc(OC(F)(F)F)ccc32)COc2cc3c(cc21)OC(F)(F)O3 [Example 182, (7R)-2,2-difluoro-7-methyl-N-[(2R,4R)-2-(piperidin-4-yl)-7-(trifluoromethoxy)-3,4-dihydro-2H-1-benzopyran-4-yl]-6,7-dihydro-2H-furo[2,3-f][1,3]benzodioxole-7-carboxamide], the EC50 is reported as 1680 nM and the “Maximum % activity (%)” value is reported as 195%.

For CC(C)(C)OC(=O)CN1CCC([C@@H]2C[C@H](NC(=O)[C@@]3(C)COc4cc5c(cc43)OC(F)(F)O5)c3ccc(OC(F)(F)F)cc3O2)CC1 [Example 183, tert-butyl {4-[(2S,4S)-4-{[(7R)-2,2-difluoro-7-methyl-6,7-dihydro-2H-furo[2,3-f][1,3]benzodioxole-7-carbonyl]amino}-7-(trifluoromethoxy)-3,4-dihydro-2H-1-benzopyran-2-yl]piperidin-1-yl}acetate], the EC50 was 2220 nM and the “Maximum % activity (%)” value was 60%.

For C[C@]1(C(=O)N[C@H]2C[C@@H](C3CCN(CC(=O)O)CC3)Oc3cc(OC(F)(F)F)ccc32)COc2cc3c(cc21)OC(F)(F)O3 [Example 184, {4-[(2S,4S)-4-{[(7R)-2,2-difluoro-7-methyl-6,7-dihydro-2H-furo[2,3-f][1,3]benzodioxole-7-carbonyl]amino}-7-(trifluoromethoxy)-3,4-dihydro-2H-1-benzopyran-2-yl]piperidin-1-yl}acetic acid], the EC50 was > 20000 nM and the “Maximum % activity (%)” value was 12%.

C[C@]1(C(=O)N[C@H]2C[C@@H](C3CCNCC3)Oc3cc(OC(F)(F)F)ccc32)COc2cc3c(cc21)OC(F)(F)O3 [Example 185, (7R)-2,2-difluoro-7-methyl-N-[(2S,4S)-2-(piperidin-4-yl)-7-(trifluoromethoxy)-3,4-dihydro-2H-1-benzopyran-4-yl]-6,7-dihydro-2H-furo[2,3-f][1,3]benzodioxole-7-carboxamide] was tested, and the EC50 was 3350 nM and the “Maximum % activity (%)” value was 31%.

For CC(C)(C)OC(=O)CN1CCC([C@H]2C[C@@H](NC(=O)[C@@]3(C)COc4cc5c(cc43)OC(F)(F)O5)c3ccc(OC(F)(F)F)cc3O2)CC1 [Example 186, tert-butyl {4-[(2R,4R)-4-{[(7R)-2,2-difluoro-7-methyl-6,7-dihydro-2H-furo[2,3-f][1,3]benzodioxole-7-carbonyl]amino}-7-(trifluoromethoxy)-3,4-dihydro-2H-1-benzopyran-2-yl]piperidin-1-yl}acetate], the EC50 was 670 nM and the “Maximum % activity (%)” value was 189%.

With C[C@]1(C(=O)N[C@@H]2C[C@H](C3CCN(CC(=O)O)CC3)Oc3cc(OC(F)(F)F)ccc32)COc2cc3c(cc21)OC(F)(F)O3 [Example 187, {4-[(2R,4R)-4-{[(7R)-2,2-difluoro-7-methyl-6,7-dihydro-2H-furo[2,3-f][1,3]benzodioxole-7-carbonyl]amino}-7-(trifluoromethoxy)-3,4-dihydro-2H-1-benzopyran-2-yl]piperidin-1-yl}acetic acid] the EC50 was 2540 nM and the “Maximum % activity (%)” value was 129%.

In the case of C[C@]1(C(=O)N[C@H]2C[C@@H](C3CCN(C[C@H](O)CO)CC3)Oc3cc(OC(F)(F)F)ccc32)COc2cc3c(cc21)OC(F)(F)O3 [Example 188, (7R)—N-[(2S,4S)-2-{1-[(2S)-2,3-dihydroxypropyl]piperidin-4-yl}-7-(trifluoromethoxy)-3,4-dihydro-2H-1-benzopyran-4-yl]-2,2-difluoro-7-methyl-6,7-dihydro-2H-furo[2,3-f][1,3]benzodioxole-7-carboxamide], the EC50 is reported as > 20000 nM and the “Maximum % activity (%)” value is reported as 20%.

With C[C@]1(C(=O)N[C@@H]2C[C@H](C3CCN(C[C@H](O)CO)CC3)Oc3cc(OC(F)(F)F)ccc32)COc2cc3c(cc21)OC(F)(F)O3 [Example 189, (7R)—N-[(2R,4R)-2-{1-[(2S)-2,3-dihydroxypropyl]piperidin-4-yl}-7-(trifluoromethoxy)-3,4-dihydro-2H-1-benzopyran-4-yl]-2,2-difluoro-7-methyl-6,7-dihydro-2H-furo[2,3-f][1,3]benzodioxole-7-carboxamide] the EC50 was 2030 nM and the “Maximum % activity (%)” value was 186%.

In the case of C=Cc1cnc([C@H]2C[C@@H](NC(=O)[C@@]3(C)COc4cc5c(cc43)OC(F)(F)O5)c3ccc(OC)cc3O2)cn1 [Example 190, (7R)—N-[(2R,4R)-2-(5-ethenylpyrazin-2-yl)-7-methoxy-3,4-dihydro-2H-1-benzopyran-4-yl]-2,2-difluoro-7-methyl-6,7-dihydro-2H-furo[2,3-f][1,3]benzodioxole-7-carboxamide], the EC50 is reported as 90 nM and the “Maximum % activity (%)” value is reported as 115%.

COc1ccc2c(c1)O[C@@H](c1cnc(Cl)cn1)C[C@H]2NC(=O)[C@@]1(C)COc2cc3c(cc21)OC(F)(F)O3 [Example 193, (7R)—N-[(2R,4R)-2-(5-chloropyrazin-2-yl)-7-methoxy-3,4-dihydro-2H-1-benzopyran-4-yl]-2,2-difluoro-7-methyl-6,7-dihydro-2H-furo[2,3-f][1,3]benzodioxole-7-carboxamide] was tested, and the EC50 was 180 nM and the “Maximum % activity (%)” value was 118%.

CC(C)OC(=O)[C@H]1CC[C@H]([C@H]2C[C@@H](NC(=O)[C@@]3(C)COc4cc5c(cc43)OC(F)(F)O5)c3ccc(OC(F)(F)F)cc3O2)CC1 [Example 194, propan-2-yl trans-4-[(2R,4R)-4-{[(7R)-2,2-difluoro-7-methyl-6,7-dihydro-2H-furo[2,3-f][1,3]benzodioxole-7-carbonyl]amino}-7-(trifluoromethoxy)-3,4-dihydro-2H-1-benzopyran-2-yl]cyclohexane-1-carboxylate] was tested, and the EC50 was 60 nM and the “Maximum % activity (%)” value was 143%.

COc1ccc2c(c1)O[C@@H](c1ccc(Cl)nn1)C[C@H]2NC(=O)[C@@]1(C)COc2cc3c(cc21)OC(F)(F)O3 [Example 195, (7R)—N-[(2R,4R)-2-(6-chloropyridazin-3-yl)-7-methoxy-3,4-dihydro-2H-1-benzopyran-4-yl]-2,2-difluoro-7-methyl-6,7-dihydro-2H-furo[2,3-f][1,3]benzodioxole-7-carboxamide] was tested, and the EC50 was 340 nM and the “Maximum % activity (%)” value was 101%.

With COc1ccc2c(c1)OC(c1ccc(=O)n(C[C@@H](O)CO)n1)C[C@H]2NC(=O)[C@@]1(C)COc2cc3c(cc21)OC(F)(F)O3 (stereo partly drawn) [Example 196, (7R)—N-[(4R)-2-{1-[(2R)-2,3-dihydroxypropyl]-6-oxo-1,6-dihydropyridazin-3-yl}-7-methoxy-3,4-dihydro-2H-1-benzopyran-4-yl]-2,2-difluoro-7-methyl-6,7-dihydro-2H-furo[2,3-f][1,3]benzodioxole-7-carboxamide] the EC50 was 400 nM and the “Maximum % activity (%)” value was 105%.

For CC(C)(C)OC(=O)N[C@H]1CC[C@H]([C@@H]2C[C@H](NC(=O)[C@@]3(C)COc4cc5c(cc43)OC(F)(F)O5)c3ccc(OC(F)F)cc3O2)CC1 [Example 198, tert-butyl {trans-4-[(2S,4S)-7-(difluoromethoxy)-4-{[(7R)-2,2-difluoro-7-methyl-6,7-dihydro-2H-furo[2,3-f][1,3]benzodioxole-7-carbonyl]amino}-3,4-dihydro-2H-1-benzopyran-2-yl]cyclohexyl}carbamate], the EC50 was 1070 nM and the “Maximum % activity (%)” value was 106%.
